Among the data in patent US9078909B2, “Tertiary amines, medicaments containing said amines, use thereof and processes for the preparation thereof” (Boehringer Ingelheim International GmbH, priority 2012, dated 2015) are IC50 values, retold here.

Structures are written as SMILES.

The assay concerns the target T1, epithelial sodium channel (ENaC) (Mus musculus, UniProt Q61180+Q9WU38+Q9WU39).
T1 construct: Mouse kidney M-1 cells were cultivated in DMEM; endogenous in cells; host or cells: mouse kidney M-1 cells (cortical collecting duct line), dexamethasone-treated, on transwell filters
T1 sequence (Q61180 1-699): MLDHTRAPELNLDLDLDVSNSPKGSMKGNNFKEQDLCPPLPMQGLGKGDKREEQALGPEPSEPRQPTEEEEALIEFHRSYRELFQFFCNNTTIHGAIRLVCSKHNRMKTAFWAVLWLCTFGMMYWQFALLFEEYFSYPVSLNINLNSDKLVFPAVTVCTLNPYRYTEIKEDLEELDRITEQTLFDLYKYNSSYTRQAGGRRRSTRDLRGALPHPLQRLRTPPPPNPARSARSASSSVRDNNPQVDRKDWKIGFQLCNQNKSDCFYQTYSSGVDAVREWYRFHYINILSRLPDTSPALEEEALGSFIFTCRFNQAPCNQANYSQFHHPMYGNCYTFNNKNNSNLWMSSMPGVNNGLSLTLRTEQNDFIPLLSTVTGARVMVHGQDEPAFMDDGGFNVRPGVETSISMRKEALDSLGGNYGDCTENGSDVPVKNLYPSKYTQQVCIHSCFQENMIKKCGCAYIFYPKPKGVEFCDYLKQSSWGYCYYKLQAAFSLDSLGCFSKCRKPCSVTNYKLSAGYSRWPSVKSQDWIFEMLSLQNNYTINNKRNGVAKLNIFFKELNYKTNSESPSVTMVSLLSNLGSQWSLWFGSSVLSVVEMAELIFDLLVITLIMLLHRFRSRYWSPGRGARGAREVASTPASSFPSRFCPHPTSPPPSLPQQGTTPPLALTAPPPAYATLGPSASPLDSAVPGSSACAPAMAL
T1 sequence (Q9WU38 1-638): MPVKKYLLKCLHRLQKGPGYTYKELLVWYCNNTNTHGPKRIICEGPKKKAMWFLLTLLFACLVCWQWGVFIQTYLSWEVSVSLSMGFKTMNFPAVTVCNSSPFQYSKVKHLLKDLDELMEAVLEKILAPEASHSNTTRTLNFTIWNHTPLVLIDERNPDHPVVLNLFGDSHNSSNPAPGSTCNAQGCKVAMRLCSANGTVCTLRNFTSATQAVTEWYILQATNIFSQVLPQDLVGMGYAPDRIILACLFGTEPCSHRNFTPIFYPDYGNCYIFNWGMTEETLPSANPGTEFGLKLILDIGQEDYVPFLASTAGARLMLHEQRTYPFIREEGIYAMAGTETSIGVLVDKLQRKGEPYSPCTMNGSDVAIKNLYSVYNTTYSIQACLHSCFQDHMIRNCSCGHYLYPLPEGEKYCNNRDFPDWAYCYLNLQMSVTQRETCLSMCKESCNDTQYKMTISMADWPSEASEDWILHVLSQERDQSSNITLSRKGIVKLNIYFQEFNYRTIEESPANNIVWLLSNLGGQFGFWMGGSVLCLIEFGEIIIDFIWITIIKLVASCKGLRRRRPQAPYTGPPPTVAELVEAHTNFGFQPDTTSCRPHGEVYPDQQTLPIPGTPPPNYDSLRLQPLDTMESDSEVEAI
T1 sequence (Q9WU39 1-655): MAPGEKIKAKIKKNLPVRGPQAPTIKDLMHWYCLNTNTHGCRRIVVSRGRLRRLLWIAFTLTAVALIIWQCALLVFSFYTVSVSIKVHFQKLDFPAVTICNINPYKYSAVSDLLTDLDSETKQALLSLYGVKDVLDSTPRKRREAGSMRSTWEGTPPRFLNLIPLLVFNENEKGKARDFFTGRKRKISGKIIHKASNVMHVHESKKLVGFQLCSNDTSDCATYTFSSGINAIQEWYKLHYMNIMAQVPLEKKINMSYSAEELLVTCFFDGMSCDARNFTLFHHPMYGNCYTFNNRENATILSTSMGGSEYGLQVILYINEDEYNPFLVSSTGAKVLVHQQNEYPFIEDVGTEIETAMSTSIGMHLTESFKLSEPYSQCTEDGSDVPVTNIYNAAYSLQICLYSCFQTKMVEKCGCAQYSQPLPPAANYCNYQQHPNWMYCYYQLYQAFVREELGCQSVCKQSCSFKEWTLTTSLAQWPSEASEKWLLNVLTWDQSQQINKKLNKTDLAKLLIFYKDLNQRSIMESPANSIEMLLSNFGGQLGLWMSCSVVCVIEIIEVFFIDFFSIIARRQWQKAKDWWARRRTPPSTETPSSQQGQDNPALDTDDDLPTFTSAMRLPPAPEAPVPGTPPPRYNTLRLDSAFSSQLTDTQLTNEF
Kind of assay: Ussing Chamber assay: inhibition of amiloride sensitive short circuit current (I_sc) in M-1 cells. To be noted: Ussing Chamber; mouse kidney M-1 cells on transwell filters; short circuit current; compound added to apical solution; 37° C.; read-out: IC50. In kind it is cell-based. The method, then:
Ussing Chamber: Mouse kidney M-1 cells were cultivated in DMEM containing 5% FCS and 5 μM dexamethasone for 10 to 12 days on polyester transwell filters. Filters were inserted into a teflon-coated well-plate which fit into the in-house ussing chamber system. Prior to measurement the medium of M-1 cells was replaced with Caco-2 transport buffer (Invitrogen, Germany). During measurements, the Ussing chamber temperature was kept at 37° C. Short circuit currents (I_sc) were measured in the voltage-clamp mode using an in-house built amplifier (Boehringer Ingelheim, Biberach) with the software package Lab View for data acquisition and analysis. The transepithelial electrical resistance (TEER) was determined by the application of voltage steps of ±5 mV every 5 sec. Compounds were administered at a final concentration of 3 μM or at increasing concentrations (e.g. 1-3-10 μM) to the apical solution. At the end of each experiment the amiloride sensitive I_SC was measured by adding 3 μM amiloride to the apical compartment. Results are expressed as inhibition in percent of the amiloride effect or as IC50.
With the example compounds given above, the following IC50 values were determined in the Ussing Chamber assay: […]
For orientation: IC50 means the concentration that inhibits the measured activity by half. For `COC(=O)CCN1CCC(NC(=N)NC(=O)c2nc(Cl)c(N)nc2N)CC1` [Example 4.1], the IC50 was 19 nM.

On to `NC(=NC(=O)c1nc(Cl)c(N)nc1N)NC1CCN(CC(=O)NC2CN3CCC2CC3)CC1` (centres unmarked) [Example 1.32], for which the IC50 worked out at 13 nM.

For the compound `NC(=NC(=O)c1nc(Cl)c(N)nc1N)NC1CCN(CC2CCCC2)CC1` [Example 4.13], the IC50 was 30 nM.

Turning to `NC(=NC(=O)c1nc(Cl)c(N)nc1N)NC1CCN(CC(=O)NC2CCSCC2)CC1` [Example 1.31], the half-inhibitory concentration (IC50) came to 2 nM.

`NC(=NC(=O)c1nc(Cl)c(N)nc1N)NC1CCN(CC(=O)Nc2ccccc2C(=O)O)CC1` [Example 2.3]: the IC50 worked out at 47 nM.

Turning to `COc1ccc(CNC(=O)CN2CCC(N/C(N)=N/C(=O)c3nc(Cl)c(N)nc3N)CC2)cc1` [Example 6.1], the IC50 was found to be 5 nM.

`NC(=NC(=O)c1nc(Cl)c(N)nc1N)NC1CCN(CC(=O)NCCCn2ccnc2)CC1` [Example 1.24]: the IC50 stood at 7 nM.

Regarding `CCOC(=O)c1cccc(CCNC(=O)CN2CCC(NC(N)=NC(=O)c3nc(Cl)c(N)nc3N)CC2)c1` [Example 1.34], the half-maximal inhibitory concentration (IC50) came out at 4 nM.

Turning to `CC(C)NC(=O)CN1CCC(NC(N)=NC(=O)c2nc(Cl)c(N)nc2N)CC1` [Example 6.7], the IC50 came out at 3 nM.

For `COC(=O)Cn1ccc(NC(=O)CN2CCC(NC(N)=NC(=O)c3nc(Cl)c(N)nc3N)CC2)cc1=O` [Example 1.16], the 50% inhibitory concentration (IC50) came out at 18 nM.

Take `CCN(CC)C(=O)CN1CCC(NC(N)=NC(=O)c2nc(Cl)c(N)nc2N)CC1` [Example 4.5]: the 50% inhibitory concentration (IC50) is 36 nM.

On to `CN(C)CCNC(=O)c1ccccc1NC(=O)CN1CCC(NC(=N)NC(=O)c2nc(Cl)c(N)nc2N)CC1` [Example 3.1], for which the IC50 was determined as 19 nM.

Regarding `NC(=NC(=O)c1nc(Cl)c(N)nc1N)NC1CCN(CC(=O)NC2CCOCC2)CC1` [Example 1.29], the half-maximal inhibitory concentration (IC50) came out at 8 nM.

As for `CCCCOC(=O)CN1CCC(NC(N)=NC(=O)c2nc(Cl)c(N)nc2N)CC1` [Example 4.10], the half-inhibitory concentration (IC50) turned out to be 4 nM.

Regarding `CCN1CCC(NC(N)=NC(=O)c2nc(Cl)c(N)nc2N)CC1` [Example 4.14], the 50% inhibitory concentration (IC50) was 53 nM.

Turning to `CC(=O)N(CCCN(C)C)c1ccc(NC(=O)CN2CCC(NC(N)=NC(=O)c3nc(Cl)c(N)nc3N)CC2)cc1` [Example 1.10], the IC50 was found to be 1 nM.

On to `NC(=NC(=O)c1nc(Cl)c(N)nc1N)NC1CCN(CC(=O)N2CCC(C(=O)O)CC2)CC1` [Example 5.4], for which the IC50 came out at 176 nM.

Consider `NC(=NC(=O)c1nc(Cl)c(N)nc1N)NC1CCN(CC(=O)NCC(=O)O)CC1` [Example 5.2], for which the IC50 is 80 nM.

`CN(C)CCN(C)S(=O)(=O)c1ccc(NC(=O)CN2CCC(NC(N)=NC(=O)c3nc(Cl)c(N)nc3N)CC2)cc1` [Example 1.11]: the IC50 came out at 1 nM.

For `NC(=NC(=O)c1nc(Cl)c(N)nc1N)NC1CCN(CC(=O)Nc2ccc(S(=O)(=O)O)cc2)CC1` [Example 1.13], the IC50 came to 23 nM.

On to `COC(=O)c1cccc(NC(=O)CN2CCC(NC(N)=NC(=O)c3nc(Cl)c(N)nc3N)CC2)c1` [Example 1.19], for which the IC50 came to 3 nM.

For the compound `CCOC(=O)CN1CCC(NC(N)=NC(=O)c2nc(Cl)c(N)nc2N)CC1` [Example 4.6], the IC50 turned out to be 7 nM.

Consider `CC(C)(C)OC(=O)CN1CCC(NC(N)=NC(=O)c2nc(Cl)c(N)nc2N)CC1` [Example 4.18], for which the IC50 was 3 nM.

Take `NC(=O)c1ccc(NC(=O)CN2CCC(NC(N)=NC(=O)c3nc(Cl)c(N)nc3N)CC2)cc1` [Example 1.2]: the IC50 was found to be 2 nM.

Regarding `NC(=NC(=O)c1nc(Cl)c(N)nc1N)NC1CCN(CC(=O)Nc2cccc(C(=O)O)c2)CC1` [Example 2.2], the IC50 is 31 nM.

In the case of `CN(C)CCN(c1ccc(NC(=O)CN2CCC(NC(N)=NC(=O)c3nc(Cl)c(N)nc3N)CC2)cc1)S(C)(=O)=O` [Example 1.14], the 50% inhibitory concentration (IC50) was 1 nM.

Consider `NC(=O)c1ccc(CNC(=O)CN2CCC(NC(N)=NC(=O)c3nc(Cl)c(N)nc3N)CC2)cc1` [Example 6.8], for which the half-inhibitory concentration (IC50) was determined as 5 nM.

As to `COC(=O)CCCN1CCC(NC(N)=NC(=O)c2nc(Cl)c(N)nc2N)CC1` [Example 4.8], the concentration for half-maximal inhibition (IC50) is 27 nM.

Consider `NC(=NC(=O)c1nc(Cl)c(N)nc1N)NC1CCN(CCCC(=O)O)CC1` [Example 5.3], for which the half-maximal inhibitory concentration (IC50) turned out to be 169 nM.

`CCSCCNC(=O)CN1CCC(NC(N)=NC(=O)c2nc(Cl)c(N)nc2N)CC1` [Example 1.30]: the IC50 was 2 nM.

For `CN(Cc1ccccc1)C(=O)CN1CCC(NC(N)=NC(=O)c2nc(Cl)c(N)nc2N)CC1` [Example 1.21], the IC50 is 18 nM.

For `NC(=NC(=O)c1nc(Cl)c(N)nc1N)NC1CCN(CC(=O)Nc2ccc(S(N)(=O)=O)cc2)CC1` [Example 1.4], the half-inhibitory concentration (IC50) is 2 nM.
